Assay results taken from paper PMC7002129, “The structure of Photosystem I acclimated to far-red light illuminates an ecologically important acclimation process in photosynthesis” (Science Advances, 2020).

Key:
[1] = biological target: T1, FRL-PSI (far-red light-acclimated Photosystem I trimer) (Fischerella thermalis, UniProt G6FME9+G6FMF0); assay: reversed-phase HPLC of extracted pigments; assay type: binding; conditions: native complex; site not assigned (modelled as beta-carotene)
T1 construct: gene psaA; native trimer from FRL-grown cells, DM-solubilised, sucrose gradients; 36 subunits (12 per monomer), ~1 MDa; with Photosystem I reaction center subunit II; Photosystem I reaction center subunit IV; Photosystem I reaction center subunit VIII; Photosystem I reaction center subunit XII; Photosystem I 4.8K protein

[2] = biological target: Far-red light-acclimated Photosystem I (FRL-PSI) monomer from Fischerella thermalis PCC 7521 (Fischerella thermalis PCC 7521) (UniProt G6FW50); assay: cryo-EM structure; single-particle cryo-EM of trimeric FRL-PSI isolated from FRL-grown F. thermalis; plunge-frozen in 300 mM tricine pH 8.0, 50 mM NaCl; 178,666 particles, C3 symmetry, global resolution 3.19 Å
[3] = biological target: T1, FRL-PSI (far-red light-acclimated Photosystem I trimer); assay: cryo-EM structure ([…] Å); reversed-phase HPLC of extracted pigments; assay type: binding; conditions: presence shown by HPLC

How did the “reversed-phase HPLC of extracted pigments” value [1] turn out when `CC1=C(/C=C/C(C)=C/C=C/C(C)=C/C=C/C=C(C)/C=C/C=C(C)/C=C/C2=C(C)C(=O)CCC2(C)C)C(C)(C)CCC1` [echinenone] was run?
Its value is “both complexes contain a mixture of β-carotene and echinenone”.

Which stoichiometry N [2] does the source give for “Far-red light-acclimated Photosystem I (FRL-PSI) monomer from Fischerella thermalis PCC 7521 (from UniProt G6FW50 1-81; G6FQU3 1-72) (complex)” here?
Its stoichiometry N is 3.

With `CC1=C(/C=C/C(C)=C/C=C/C(C)=C/C=C/C=C(C)/C=C/C=C(C)/C=C/C2=C(C)CCCC2(C)C)C(C)(C)CCC1` [β-carotene] as the compound, how does the “cryo-EM structure (3.19 Å); reversed-phase HPLC of extracted pigments” value ([3]; not distinguishable from echinenone in the map) read?
Its value is “all carotenoids are modeled as β-carotene (BCR)”.

For `C=Cc1c(C=O)c2[n]3c1=CC1=NC(=Cc4c(C)c5c([n]4[Mg]3)C(=C3N=C(C=2)C(C)C3CCC(=O)OCC=C(C)CCCC(C)CCCC(C)CCCC(C)C)C(C(=O)OC)C5=O)C(CC)=C1C` (stereo not shown) [Chl f], which “cryo-EM structure (3.19 Å); reversed-phase HPLC of extracted pigments” value ([3]; sites A20, A21, B30, B37 modelled as Chl f, assigned indirectly from environment) is on record?
Its value is “sites of Chl A20, Chl A21, Chl B30, and Chl B37, accounting for four”.
